Results published in PubChem BioAssay (NCI).
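Assay format: 96-well plates, 48-hour exposure. TGI marks complete inhibition of growth.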

Columns and labels:
Assay in all cases: NCI anticancer screen, dose series, 48 h
SNB-19 CNS = system: SNB-19 CNS
CAKI-1 renal = system: CAKI-1 renal
RPMI-8226 leukemia = system: RPMI-8226 leukemia
HOP-92 NSCLC = system: HOP-92 NSCLC
OVCAR-8 ovarian = system: OVCAR-8 ovarian
ACHN renal = system: ACHN renal
LOX IMVI melanoma = system: LOX IMVI melanoma
SF-539 CNS = system: SF-539 CNS
EKVX NSCLC = system: EKVX NSCLC
COLO 205 colon = system: COLO 205 colon
MCF7 breast = system: MCF7 breast
HCT-116 colon = system: HCT-116 colon
UACC-62 melanoma = system: UACC-62 melanoma
DU-145 prostate = system: DU-145 prostate
SF-295 CNS = system: SF-295 CNS
OVCAR-4 ovarian = system: OVCAR-4 ovarian
HCC-2998 colon = system: HCC-2998 colon
A498 renal = system: A498 renal
SK-MEL-2 melanoma = system: SK-MEL-2 melanoma
HCT-15 colon = system: HCT-15 colon

| Structure (SMILES) | TGI (SNB-19 CNS) [µM] | TGI (CAKI-1 renal) [µM] | TGI (RPMI-8226 leukemia) [µM] | TGI (HOP-92 NSCLC) [µM] | TGI (OVCAR-8 ovarian) [µM] | TGI (ACHN renal) [µM] | TGI (LOX IMVI melanoma) [µM] | TGI (SF-539 CNS) [µM] | TGI (EKVX NSCLC) [µM] | TGI (COLO 205 colon) [µM] | TGI (MCF7 breast) [µM] | TGI (HCT-116 colon) [µM] | TGI (UACC-62 melanoma) [µM] | TGI (DU-145 prostate) [µM] | TGI (SF-295 CNS) [µM] | TGI (OVCAR-4 ovarian) [µM] | TGI (HCC-2998 colon) [µM] | TGI (A498 renal) [µM] | TGI (SK-MEL-2 melanoma) [µM] | TGI (HCT-15 colon) [µM] |
| --- | --- | --- | --- | --- | --- | --- | --- | --- | --- | --- | --- | --- | --- | --- | --- | --- | --- | --- | --- | --- |
| Cc1ccc(S(=O)(=O)N/N=C/C2(c3ccccc3)c3ccccc3-c3ccccc32)cc1 | 73 | 62.4 | 87.2 | 25.5 | 31.5 | 88.3 | 26.1 | 30.9 | 30.2 | 13.8 | 29.6 | 20.3 | 27.3 | 27.1 | 16.1 | 24.3 | 26.3 | 33 | 25.9 | 22.4 |
| c1c[nH]c(-c2ccc(-c3ccc[nH]3)c3nsnc23)c1 | > 100 | > 100 | > 52.6 | > 100 | > 60.4 | > 86.8 | > 100 | > 76.8 | > 58.4 | > 65.9 | > 100 | > 59.8 | > 100 | 98.3 | > 100 | > 16.5 | > 100 | > 100 | > 100 | > 76.8 |
| O=[N+]([O-])c1ccc(Oc2c(Cl)cc(S(=O)(=O)/N=C(\NO)Nc3ccc(Cl)cc3)cc2Cl)cc1 | 29.2 | 18.9 | 22.8 | 11.1 | 27.5 | 23.8 | 24.9 | 26.7 | 24.9 | 29.9 | 24.1 | 22.6 | 24.1 | 29.3 | 27.3 | 17.3 | 13.1 | 23.3 | 24.1 | 24.5 |
| Cc1cn(C2CC(O)C(CO)O2)c(=O)[nH]c1=O (stereo not given) | > 2850 | 4450 | > 5000 | > 4830 | 4960 | > 5000 | > 5000 | > 5000 | 4950 | > 5000 | > 4300 | > 4240 | 3680 | > 5000 | > 5000 | > 4640 | > 5000 | > 5000 | > 5000 | > 5000 |
| CSC(=S)N/N=C(\C)c1ccc(S(=O)(=O)N(C)c2ccccc2)cc1 | > 100 | > 100 | > 100 | > 100 | > 100 | > 100 | > 100 | > 100 | > 100 | > 100 | > 100 | > 100 | > 100 | > 100 | > 100 | > 100 | > 100 | > 100 | > 100 | > 100 |
| CN1CSC(=S)N(c2c3ccccc3nc3ccc(Br)cc23)C1 | 26 | 24 | 31.4 | 32.7 | > 51.2 | 19.5 | > 53.4 | 25.7 | 33.1 | 20 | 24.1 | 15.7 | 27.4 | 22 | 21.2 | 25.7 | 8.3 | 27 | 29.3 | 20.4 |
| CCCCC(C(=O)NCCNC(=O)CCC(=O)N(C)O)C(=O)NCCNC(=O)CCC(=O)N(C)O | > 100 | > 100 | > 100 | > 100 | > 100 | > 100 | > 100 | > 100 | > 100 | > 100 | > 100 | > 100 | > 100 | > 100 | > 100 | > 100 | > 100 | > 100 | > 100 | > 100 |
| CC1(C)CCCC2OC2CCC(C)(C)C1=O (stereo not given) | > 100 | > 100 | > 100 | > 100 | > 100 | > 100 | > 100 | > 100 | > 100 | > 100 | > 100 | > 100 | > 100 | > 100 | > 100 | > 100 | > 100 | > 100 | > 100 | > 100 |
| O=c1[nH]c(=O)n(C2OC(CO)C(O)C2O)c2nc(-c3ccc(-c4ccccc4)cc3)cnc12 (stereo not given) | > 100 | > 100 | > 100 | > 100 | > 100 | > 100 | > 100 | > 100 | > 100 | > 100 | > 100 | > 100 | > 100 | > 100 | > 100 | > 100 | > 100 | > 100 | > 100 | > 100 |
| CCOC(=O)c1cn2c(nc1=O)N[C@H]1CCCC[C@@H]12 | > 100 | > 100 | > 100 | > 100 | > 100 | > 100 | > 100 | > 100 | > 100 | > 100 | > 100 | > 100 | > 100 | > 100 | > 100 | > 100 | > 100 | > 100 | > 100 | > 100 |
| CCNC(=O)Cc1nc2c(N)ncnc2n1C1OC(CO)C(O)C1O (stereo not given) | > 100 | > 100 | > 100 | > 100 | > 100 | > 100 | > 100 | > 100 | > 100 | > 100 | 86.5 | > 100 | > 100 | > 100 | > 100 | > 100 | > 100 | > 100 | > 100 | > 100 |
| CC(=O)Nc1nc(C#N)[nH]c1C#N | > 100 | > 100 | > 100 | > 100 | > 100 | > 100 | > 100 | > 100 | > 100 | > 100 | > 100 | > 100 | > 100 | > 100 | > 100 | > 100 | > 100 | > 100 | > 100 | > 100 |
